Test system: 171881-019-R-J1-PDC tumor spheroids, viability
Assay: Anticancer human tumor 171881-019-R-J1-PDC patient-derived invasive breast carcinoma cell line growth inhibition [GQUAD]
Conditions: spheroids with HUVEC and MSC; for IC50: curve of first compound; for viability, T/C: stronger effect = lower value
Outline: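 Viability of tumor cells grown as complex spheroids with endothelial and stromal cells, exposed to drug combinations. Top concentration at or near clinical Cmax (else 10 microM), diluted in half-log increments.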

[1] = second compound 0.0316 µM, first compound 0.0316 µM
[2] = second compound 0.0316 µM, first compound 0.1 µM
[3] = second compound 0.0316 µM, first compound 0.316 µM
[4] = second compound 0.0316 µM, first compound 1 µM
[5] = second compound 0.0316 µM, first compound 3.16 µM
[6] = second compound 0.0316 µM, first compound 10 µM
[7] = second compound 0.1 µM, first compound 0.0316 µM
[8] = second compound 0.1 µM, first compound 0.1 µM
[9] = second compound 0.1 µM, first compound 0.316 µM
[10] = second compound 0.1 µM, first compound 1 µM
[11] = second compound 0.1 µM, first compound 3.16 µM
[12] = second compound 0.1 µM, first compound 10 µM
[13] = second compound 0.316 µM, first compound 0.0316 µM
[14] = second compound 0.316 µM, first compound 0.1 µM
[15] = second compound 0.316 µM, first compound 0.316 µM
[16] = second compound 0.316 µM, first compound 1 µM
[17] = second compound 0.316 µM, first compound 3.16 µM
[18] = second compound 0.316 µM, first compound 10 µM
[19] = second compound 1 µM, first compound 0.0316 µM
[20] = second compound 1 µM, first compound 0.1 µM
[21] = second compound 1 µM, first compound 0.316 µM
[22] = second compound 1 µM, first compound 1 µM
[23] = second compound 1 µM, first compound 3.16 µM
[24] = second compound 1 µM, first compound 10 µM
[25] = second compound 3.16 µM, first compound 0.0316 µM
[26] = second compound 3.16 µM, first compound 0.1 µM
[27] = second compound 3.16 µM, first compound 0.316 µM
[28] = second compound 3.16 µM, first compound 1 µM
[29] = second compound 3.16 µM, first compound 3.16 µM
[30] = second compound 3.16 µM, first compound 10 µM
[31] = second compound 10 µM, first compound 0.0316 µM
[32] = second compound 10 µM, first compound 0.1 µM
[33] = second compound 10 µM, first compound 0.316 µM
[34] = second compound 10 µM, first compound 1 µM
[35] = second compound 10 µM, first compound 3.16 µM
[36] = second compound 10 µM, first compound 10 µM
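Throughout, for viability, T/C: 100% = DMSO vehicle control viability.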

`COc1ncnc(C2CC2)c1-c1ncc2cnn(Cc3ccc(-c4nc(C(F)(F)F)cn4C(C)C)cc3)c2n1` + Cc1[nH]c2ccc(F)cc2c1-c1nc2c3cccnc3c3ncccc3c2[nH]1 showed an IC50 (second compound 0.0316 µM) greater than 10000 nM, an IC50 (second compound 0.1 µM) greater than 10000 nM and an IC50 (second compound 0.316 µM) greater than 10000 nM. It also gave an IC50 (second compound 1 µM) greater than 10000 nM, an IC50 (second compound 3.16 µM) of less than 31.6 nM and an IC50 (second compound 10 µM) of less than 31.6 nM. The viability, T/C [1] was 88.4%, the viability, T/C [2] was 93.6% and the viability, T/C [3] was 97.8%. For the same compound, the viability, T/C [4] was 104%, the viability, T/C [5] was 90.5% and the viability, T/C [6] was 88.4%. For the same compound, the viability, T/C [7] was 97.5%, the viability, T/C [8] was 87.9% and the viability, T/C [9] was 99.1%. The viability, T/C [10] was 98.8%, the viability, T/C [11] was 83.1% and the viability, T/C [12] was 81.8%. For the same compound, the viability, T/C [13] was 71.4%, the viability, T/C [14] was 74.2% and the viability, T/C [15] was 75.4%. For the same compound, the viability, T/C [16] was 72%, the viability, T/C [17] was 72.3% and the viability, T/C [18] was 62.7%. For the same compound, the viability, T/C [19] was 65.1%, the viability, T/C [20] was 54.2% and the viability, T/C [21] was 59.4%. For the same compound, the viability, T/C [22] was 60.3%, the viability, T/C [23] was 71.1% and the viability, T/C [24] was 60.3%. For the same compound, the viability, T/C [25] was 8.81%, the viability, T/C [26] was 4.91% and the viability, T/C [27] was 7.33%. The viability, T/C [28] was 8.01%, the viability, T/C [29] was 11.8% and the viability, T/C [30] was 6.52%. The viability, T/C [31] was 40.8%, the viability, T/C [32] was 38.5% and the viability, T/C [33] was 30.7%. The viability, T/C [34] was 50%, the viability, T/C [35] was 42.6% and the viability, T/C [36] was 35.2%.

Work on `Cc1[nH]c2ccccc2c1CCNCc1ccc(/C=C/C(=O)NO)cc1` + Cc1[nH]c2ccc(F)cc2c1-c1nc2c3cccnc3c3ncccc3c2[nH]1 yielded an IC50 (second compound 0.0316 µM) of 59.6 nM, an IC50 (second compound 0.1 µM) of 64.8 nM and an IC50 (second compound 0.316 µM) of 49.1 nM. It also gave an IC50 (second compound 1 µM) of 32.5 nM, an IC50 (second compound 3.16 µM) of less than 0.999 nM and an IC50 (second compound 10 µM) of less than 0.999 nM. It also gave a viability, T/C (second compound 0.0316 µM, first compound 0.000999 µM) of 109%, a viability, T/C (second compound 0.0316 µM, first compound 0.00316 µM) of 107% and a viability, T/C (second compound 0.0316 µM, first compound 0.00999 µM) of 94.6%. It also gave a viability, T/C [1] of 84.6%, a viability, T/C (second compound 0.0316 µM, first compound 0.0999 µM) of 22.5% and a viability, T/C [3] of 0.66%. For the same compound, the viability, T/C (second compound 0.1 µM, first compound 0.000999 µM) was 90.7%, the viability, T/C (second compound 0.1 µM, first compound 0.00316 µM) was 98.2% and the viability, T/C (second compound 0.1 µM, first compound 0.00999 µM) was 99.5%. The viability, T/C [7] was 91.7%, the viability, T/C (second compound 0.1 µM, first compound 0.0999 µM) was 24.8% and the viability, T/C [9] was 0.58%. For the same compound, the viability, T/C (second compound 0.316 µM, first compound 0.000999 µM) was 91.7%, the viability, T/C (second compound 0.316 µM, first compound 0.00316 µM) was 72.2% and the viability, T/C (second compound 0.316 µM, first compound 0.00999 µM) was 85.5%. For the same compound, the viability, T/C [13] was 63.3%, the viability, T/C (second compound 0.316 µM, first compound 0.0999 µM) was 27% and the viability, T/C [15] was 0.34%. The viability, T/C (second compound 1 µM, first compound 0.000999 µM) was 66.8%, the viability, T/C (second compound 1 µM, first compound 0.00316 µM) was 55.9% and the viability, T/C (second compound 1 µM, first compound 0.00999 µM) was 63.1%. For the same compound, the viability, T/C [19] was 50.3%, the viability, T/C (second compound 1 µM, first compound 0.0999 µM) was 20.4% and the viability, T/C [21] was 0.35%. It also gave a viability, T/C (second compound 3.16 µM, first compound 0.000999 µM) of 9.69%, a viability, T/C (second compound 3.16 µM, first compound 0.00316 µM) of 7.8% and a viability, T/C (second compound 3.16 µM, first compound 0.00999 µM) of 7.35%. For the same compound, the viability, T/C [25] was 5.79%, the viability, T/C (second compound 3.16 µM, first compound 0.0999 µM) was 1.55% and the viability, T/C [27] was 0.52%. The viability, T/C (second compound 10 µM, first compound 0.000999 µM) was 43.6%, the viability, T/C (second compound 10 µM, first compound 0.00316 µM) was 46.2% and the viability, T/C (second compound 10 µM, first compound 0.00999 µM) was 41.6%. For the same compound, the viability, T/C [31] was 46.7%, the viability, T/C (second compound 10 µM, first compound 0.0999 µM) was 13.9% and the viability, T/C [33] was 0.41%.

In the case of `O=C(NO)c1cnc(N2CCN(S(=O)(=O)c3ccc4ccccc4c3)CC2)nc1` + Cc1[nH]c2ccc(F)cc2c1-c1nc2c3cccnc3c3ncccc3c2[nH]1, the IC50 (second compound 0.0316 µM) is reported as 348 nM, the IC50 (second compound 0.1 µM) is reported as 410 nM and the IC50 (second compound 0.316 µM) is reported as 341 nM. For the same compound, the IC50 (second compound 1 µM) was 148 nM, the IC50 (second compound 3.16 µM) was less than 31.6 nM and the IC50 (second compound 10 µM) was less than 31.6 nM. The viability, T/C [1] was 93.7%, the viability, T/C [2] was 83.3% and the viability, T/C [3] was 55%. The viability, T/C [4] was 1.74%, the viability, T/C [5] was 0.09% and the viability, T/C [6] was 0.15%. It also gave a viability, T/C [7] of 88.4%, a viability, T/C [8] of 78.7% and a viability, T/C [9] of 63.8%. It also gave a viability, T/C [10] of 2.75%, a viability, T/C [11] of 0.09% and a viability, T/C [12] of 0.11%. The viability, T/C [13] was 73.3%, the viability, T/C [14] was 65.3% and the viability, T/C [15] was 53.4%. It also gave a viability, T/C [16] of 2.53%, a viability, T/C [17] of 0.14% and a viability, T/C [18] of 0.21%. The viability, T/C [19] was 60.2%, the viability, T/C [20] was 49.3% and the viability, T/C [21] was 41.2%. It also gave a viability, T/C [22] of 1.79%, a viability, T/C [23] of 0.34% and a viability, T/C [24] of 0.4%. For the same compound, the viability, T/C [25] was 7.54%, the viability, T/C [26] was 5.44% and the viability, T/C [27] was 2.89%. The viability, T/C [28] was 0.17%, the viability, T/C [29] was 0.14% and the viability, T/C [30] was 0.28%. It also gave a viability, T/C [31] of 34.9%, a viability, T/C [32] of 31.9% and a viability, T/C [33] of 24.6%. The viability, T/C [34] was 0.85%, the viability, T/C [35] was 0.2% and the viability, T/C [36] was 0.32%.

— PubChem BioAssay AID2060498 (Molecular Pharmacology Branch, DTP, NCI, 2025)
